These results are taken from ChEMBL document CHEMBL1122213, “Synthesis and study of a spin-labeled cyclophosphamide analogue, 3-(1-oxy-2,2,6,6-tetramethyl-4-piperidinyl)cyclophosphamide” (J Med Chem, 1982).

Molecules are shown by their SMILES. The source made the active and inactive calls. The rule behind the calls is not given here.

The nature of data set [1]: Anticancer activity tested against L1210 lymphoid leukemia in BDF1 mice; range 25-100. In kind it is ADME. Particulars: mouse.
The species named for data set [2] is Mus musculus. Description: Effect tested against L1210 lymphoid leukemia in BDF1 mice an inoculum of l0E5 cells; Inactive. In kind it is functional, organism-based.
Data set [3] has as its system Mus musculus. Description: Compound test for increase life span in mice after 100 mg/kg ip administration. In kind it is functional. The settings on record: route intraperitoneal.
A short description of data set [4]: Anticancer activity tested against L1210 lymphoid leukemia in BDF1 mice; range 75-300. In kind it is ADME. The settings on record: mouse.
A short description of data set [5]: Half life was determined. In kind it is ADME. The settings on record: rat.

As to `CC1(C)CC(NP(=O)(O)N(CCCl)CCCl)CC(C)(C)N1O.CC1(C)CC(NP(=O)(O)N(CCCl)CCCl)CC(C)(C)N1[O]` [listing 1 of 2 here], the Sublethal dose in data set [1] was > 100 mg/kg. For the molecule `CC1(C)CC(N2CCCOP2(=O)N(CCCl)CCCl)CC(C)(C)N1[O]` (configuration not stated), the result in the data set listed under Mus musculus [2] was inactive. In the data set with Mus musculus [3], this molecule had an Increased of 64%. Moreover, the Sublethal dose in data set [4] was > 300 mg/kg. Take `CC1(C)CC(NP(=O)(O)N(CCCl)CCCl)CC(C)(C)N1O`: the half-life (in general, how long it takes for the measured level to halve) in data set [5] was 34 min. With `CC1(C)CC(NP(=O)(O)N(CCCl)CCCl)CC(C)(C)N1O.CC1(C)CC(NP(=O)(O)N(CCCl)CCCl)CC(C)(C)N1[O]` [listing 2 of 2 here], the outcome in the data set filed under Mus musculus [2] was inactive. Molecule `CC1(C)CC(NP(=O)(O)N(CCCl)CCCl)CC(C)(C)N1[O]` showed a half-life in data set [5] of 51 min.
